Results taken from patent US12709731B2, “Method of producing biological material” (NTT, Inc., priority 2021, dated 2026).

Assays:
Format in all cases: cell-based
[1] = system: Cyanidioschyzon merolae; assay: Test 1: color of microorganism-containing liquid after suspension culture with regulator; conditions: for contribution to a reduction of light-harvesting pigments: added to MA2 culture medium, 18 hours culture, judged from color in FIG. 3; for color of the microorganism-containing liquid after cultivation (FIG. 3): MA2 culture medium, light condition, 18 hours after addition
Description: Unicellular red algae were cultured in suspension under a light condition and a regulator was added thereto. An MA2 culture medium was used as a culture medium. Cyanidioschyzon merolae were used as unicellular red algae. Dimethyl 2-oxoglutarate was used as the regulator. Then, after the regulator was added, the culture was further continued for 18 hours.
The above-mentioned cultivation was carried out for each case where the final concentrations of dimethyl 2-oxoglutarate were adjusted to 10, 20, 40 and 80 mmmol/L (=mM). In addition, cultivation was also carried out in a similar manner except that the addition of dimethyl 2-oxoglutarate was omitted.
Thereafter, each of microorganism-containing liquids containing unicellular red algae and the culture medium was imaged.
In addition, cultivation was carried out in a similar manner except that 2-oxoglutaric acid was used instead of using dimethyl 2-oxoglutarate. Thereafter, each of dispersion microorganism-containing liquids containing unicellular red algae and the culture medium was imaged.
FIG. 3 is an image obtained by imaging the microorganism-containing liquids after cultivation. In FIG. 3, “2-OG” and “dimethyl 2-OG” represent 2-oxoglutaric acid and dimethyl 2-oxoglutarate, respectively.

[2] = system: Cyanidioschyzon merolae; assay: Test 2: amount of chlorophyll a in microorganism-containing liquid after addition of regulator; conditions: final concentration 2 mmol/L; immediately before, 6 hours and 24 hours after addition; average of three independent tests; control increased
Description: Unicellular red algae were cultured in suspension under a light condition and a regulator was added thereto. An MA2 culture medium was used as a culture medium. Cyanidioschyzon merolae were used as unicellular red algae. Dimethyl 2-oxoglutarate was used as the regulator. The regulator was added so that the final concentration of dimethyl 2-oxoglutarate was 2 mmol/L. After the regulator was added, the cultivation was further continued. Then, the amounts of chlorophyll a contained in the microorganism-containing liquids were determined immediately before the regulator was added, 6 hours after the regulator was added, and 24 hours after the regulator was added. In addition, in parallel with the cultivation, cultivation was carried out as described above in a similar manner except that no regulator was added. The amount of chlorophyll a contained in the microorganism-containing liquid was also determined in the same manner as described above. FIG. 4 is a graph showing an example of the effect of the addition of the regulator on the amounts of chlorophyll a. […] Furthermore, “dimethyl 2-OG” indicates the results obtained for unicellular red algae cultured by adding dimethyl 2-oxoglutarate to the culture medium as a regulator.

[3] = system: Cyanidioschyzon merolae; assay: Test 3: amount of phycocyanin in microorganism-containing liquid after addition of regulator; conditions: final concentration 2 mmol/L; every culture time as in test 2 (0, 6, 24 hours); average of three independent tests; control increased
Description: Cultivation was carried out in a similar manner to that in the test 2 and the amounts of phycocyanin contained in the microorganism-containing liquids were determined in every culture time. FIG. 5 is a graph showing an example of the effect of the addition of a regulator on the amount of phycocyanin. […] Furthermore, “dimethyl 2-OG” indicates the results obtained for unicellular red algae cultured by adding dimethyl 2-oxoglutarate to the culture medium as a regulator.

[4] = final concentrations 10, 20, 40 and 80 mmmol/L (=mM), compared with no regulator added

Structure (SMILES)	contribution to a reduction of light-harvesting pigments [1]	color of the microorganism-containing liquid after cultivation (FIG. 3) [1, 4]	amount of chlorophyll a contained in the microorganism-containing liquid (FIG. 4) [2]	amount of phycocyanin contained in the microorganism-containing liquid (FIG. 5) [3]	color of the microorganism-containing liquid after cultivation (FIG. 3) ([1]; final concentration 20 mmol/L or higher)
O=C(O)CCC(=O)C(=O)O [2-oxoglutaric acid, 2-Oxoglutaric acid, reference compound]	little contributed	the same color as that in the case with no regulator added	–	–	–
COC(=O)CCC(=O)C(=O)OC [dimethyl 2-oxoglutarate]	greatly contributes	lighter than those of the microorganism-containing liquids with no regulator added	decreased according to the culture time	decreased according to the culture time	substantially colorless
